Laboratory results: US9901596B2, “Regulation of body weight gain by using dibenzo-alpha-pyrones” (Natreon, Inc., priority 2013, dated 2018)

Columns and labels:
Type in all cases: in vivo, C57/BL6 mice
[1] = Study 3: body weight gain in mice on high fat diet, later switched to standard diet; settings: starting at 14 weeks, after switching to standard laboratory diet
Description: Since the Studies 1 and 2 were carried out with standard laboratory diet, it was imperative to do a study with high fat diet fed mice. Study 3 was conducted using such a diet (Bio-Serve Cat# 534282, 36% fat). After 11 weeks, the high fat diet was replaced with the standard laboratory diet. […] However, starting at 14 weeks after switching to the standard laboratory diet, there is a trend in both the DBP groups for less weight gain compared to the placebo group. […] Thus, it is possible that the DBPs, especially the 3-OH-DBP, may have the potential to control body weight gain in individuals on fatty diet as well, though at a slower pace than in individuals on normal diet.

[2] = Study 2: body weight gain in mice on standard laboratory diet, 10 then 50 mg/kg DBPs; settings: for less body weight gain / less gain in body weight: 10 mg/kg b.w.; for less body weight gain: at 8 weeks; for less gain in body weight: at four weeks; for less weight gain: 3 weeks after increasing the dose to 50 mg/kg b.w. (from 13th week)
Description: Since the results from Study 1 were totally unexpected, Study 2 was carried out in order to validate the results from Study 1 and also to determine if another bioactive of Shilajit, 3-hydroxy-dibenzo-α-pyrone, may have a similar beneficial effect on controlling body weight gain. Study 2 was carried out under similar experimental conditions as Study 1, using standard laboratory diet, except that a 10 mg/kg body weight dose was administered for the first 12 weeks and then the dose was increased to 50 mg/kg body weight from the 13th week through the 19th week. The primary purpose of increasing the dose is to find out if the response is dose proportional. […] It is interesting to note that 3 weeks after increasing the dose of DBPs to 50 mg/kg b.w., 3-OH-DBP group still maintained about 45% less weight gain while the 3,8-(OH)2-DBP group retained only about 10% less weight gain. […] The secondary purpose of increasing the dose is to find out if increased dose is toxic. Different tissues were collected from the mice and toxicological examination will be conducted.

[3] = Study 1: body weight gain in mice on standard laboratory diet, 12 weeks intragastric supplementation
Description: Materials Used: Shilajit (PrimaVie®, Natreon, Inc., New Brunswick, N.J.), a standardized dietary supplement ingredient extracted and processed from Shilajit bearing rocks, containing not less than about 50% by weight fulvic acids (FAs), at least about 10% by weight dibenzo-α-pyrone chromoproteins, and at least 0.3%, or more, by weight total dibenzo-α-pyrones (DBPs), 3-OH-DBP (99.0% purity, Natreon, Inc.), and 3,8-(OH)2-DBP (99.0% purity, Natreon, Inc) were used.
Three groups of adult C57/BL6 mice (n=8) were intragastrically supplemented with purified Shilajit (PS), 3,8-dihydroxy-dibenzo-α-pyrone (3,8-(OH)2-DBP) or placebo for 12 weeks. Body weight was measured every week. At the end of week 12, skeletal muscle tissue was harvested for gene profiling. Some tissue was stored for histology and HPLC analysis.
The control group of mice received DMSO in corn oil while the PS group received 100 mg of purified Shilajit/kg body weight of mice, dissolved in water and the DBP group received 10 mg of 3,8-(OH)2-DBP/kg body weight of mice, dissolved in DMSO/corn oil.
At week 12, the following tissues were collected: heart, lung, liver, brain, muscles, adipose tissue, skeletal muscle (vastus lateralis) and whole blood.

Compound	trend for less weight gain compared to placebo [1]	less body weight gain [2]	less gain in body weight [2]	less weight gain [2]	weight gained in 90 days ([3]; 10 mg/kg body weight in DMSO/corn oil, intragastric, standard laboratory diet, 90 days)	overt signs of health compromise ([3]; 10 mg/kg body weight, 12 weeks)	age-dependent gain in body weight ([3]; standard laboratory diet/conditions)
O=c1oc2cc(O)ccc2c2ccccc12 [3-OH-DBP, 3-hydroxy-dibenzo-α-pyrone]	especially prominent	about 50%	about 45%	about 45%			
O=c1oc2cc(O)ccc2c2ccc(O)cc12 [3,8-(OH)2-DBP, 3,8-dihydroxy-dibenzo-α-pyrone]		about 50%	~40%	about 10%	about 7.5%	no overt signs of health compromise	significant decrease
